# Like-named read-outs stand apart in the source and are kept apart here.
# Tests used:
# [1] = tested on: human breast tumor MCF-7 cell line; test: MTT antiproliferative assay on human MCF-7 cell line; format: cell-based; details: for IC50: MTT inhibition of proliferation, mean of triplicate determinations; for % Cell viability: 72 h, MTT, MCF-7
# Text: EXAMPLE 14—Determination of the antiproliferative effects on human MCF-7 cell lines.
# MTT is a yellow tetrazolium salt which is taken up only by metabolically active cells and subsequently cleaved by mitochondrial dehydrogenases to yield a purple crystalline formazan dye. On solubilisation this purple color may be read spectrophotometrically at 570 nm. The absorbance measured at this wavelength is directly proportional to the amount of viable cells present.
# Procedure : The human breast tumor MCF-7 cell line was cultured in Eagles minimum essential medium in a 5% CO2 atmosphere with 10% fetal calf serum. The medium was supplemented with 1% non-essential amino acids. The cells were trypsinized and seeded at a density of 1.5×10^4 into a 96-well plate and incubated at 37° C., 5% CO2 atmosphere for 24 h. […] Control wells contained the equivalent volume of the vehicle ethanol (1% v/v). The culture medium was then removed and the cells washed with 100 μl PBS and 50 μl MTT added, to reach a final concentration of 1 mg/ml MTT added. The cells were incubated for 2 h in darkness at […]. At this point solubilisation was begun through the addition of 200 μl DMSO and the cells maintained at room temperature in darkness for 20 min to ensure thorough color diffusion before reading the absorbance. The absorbance value of control cells (no added compound) was set to 100% cell viability. Graphs of absorbance versus cell density per well were prepared to assess cell viability.
# [2] = tested on: human MCF-7 breast cancer cells; test: LDH release cytotoxicity assay on human MCF-7 cells; format: cell-based; details: 72 h
# Text: EXAMPLE 15—Determination of the cytotoxic effects on human MCF-7 cell lines.
# Lactate dehydrogenase (LDH) is a cytosolic enzyme released upon cell lysis (death). Through the use of a commercial LDH assay kit, released LDH converts a substrate tetrazolium salt into a soluble red formazan product. The absorbance of this dye can be measured directly at 490 nm, the color formed is proportional to the number of lysed cells, and as such the extent of cytotoxic activity for the compound added may be assessed.
# Procedure : As with the cell proliferation assay, human MCF-7 breast cancer cells were plated at a density of 1.5×10^4 per well in a 96-well plate, then incubated at 37° C., 5% CO2 atmosphere for 24 h. The cells were treated with the compound of choice at varying concentrations (1nM-100 μM), then incubated for a further 72 h. Following incubation 50 μl aliquots of medium were removed to a fresh 96-well plate. A 50 μl per well LDH substrate mixture was added and the plate left in darkness at room temperature for 30 minutes. Stop solution (50 μl) was added to all wells before reading the absorbance at 490 nm. A control of 100% lysis was determined for a set of untreated cells which were lysed through the addition of 20 μl lysis solution to the media 45 min prior to harvesting.
# [3] = Homo sapiens, MCF7, read-out: IC50 Range
# [4] = Homo sapiens, MCF7, read-out: IC50
Compound,IC50 ([1]; read-out: IC50 Range) [µM],"IC50 [1, 4] [µM]",also measured
"1,2-Diphenyl-2-[(4-pipyridinylethoxy)benzyl]but-1-ene [Compound 19]",65 to 70,,
"CCC(Cc1ccccc1)=C(c1ccccc1)c1ccc(OCCN(CC)CC)cc1 [Compound 2, 2-Benzyl-1-phenyl-1-[4-(diethylaminoethoxy)phenyl]but-1-ene]",,,"IC50 [1, 3]: 10 to 15 µM"
"CCC(Cc1ccccc1)=C(c1ccccc1)c1ccc(OCCN2CCCC2)cc1 [Compound 3, 2-Benzyl-1-phenyl-1-[4-(pyrrolidinylethoxy)phenyl]but-1-ene]",1 to 5,,
"CCC(Cc1ccccc1)=C(c1ccccc1)c1ccc(OCCN2CCCCC2)cc1 [Compound 4, 2-Benzyl-1-phenyl-1-[4-(pipyridinylethoxy)phenyl]but-1-ene]",1 to 5,,% Cell viability ([1]; 1 nM): 103.8%; % Cell viability ([1]; 10 nM): 100.3%; % Cell viability ([1]; 100 nM): 91.14%; % Cell viability ([1]; 1 μM): 85.13%; % Cell viability ([1]; 10 μM): 29.11%; % Cell viability ([1]; 50 μM): 1.58%; % Cell viability ([1]; 100 μM): 1.27%; % Cytotoxicity ([2]; 1 nM): 3.67%; % Cytotoxicity ([2]; 10 μM): 34.76%; % Cytotoxicity ([2]; 50 μM): 49.44%; % Cytotoxicity ([2]; 100 μM): 49.14%
"CCC(Cc1ccccc1)=C(c1ccccc1)c1ccc(OCCN2CCOCC2)cc1 [Compound 5, 2-Benzyl-1-phenyl-1-[4-(morpholinylethoxy)phenyl]but-1-ene]",40 to 50,,
"CCC(=C(Cc1ccccc1)c1ccc(OCCN(CC)CC)cc1)c1ccccc1 [Compound 7, 1-Benzyl-2-phenyl-[1-(4-diethylaminoethoxy)phenyl]-but-1-ene]",15 to 20,,
"CC/C(=C(\Cc1ccccc1)c1ccc(OCCN2CCCC2)cc1)c1ccccc1 [Compound 8, 1-Benzyl-2-phenyl-[1-(4-pyrrolidinylethoxy)phenyl]-but-1-ene]",,,"IC50 [1, 3]: 10 to 15 µM"
"CC/C(=C(\Cc1ccccc1)c1ccc(OCCN2CCCCC2)cc1)c1ccccc1 [Compound 9, 1-Benzyl-2-phenyl-[1-(4-pipyridinylethoxy)phenyl]-but-1-ene]",,,"IC50 [1, 3]: 70 to 80 µM"
"CC/C(=C(\Cc1ccccc1)c1ccc(OCCN2CCOCC2)cc1)c1ccccc1 [Compound 10, 1-Benzyl-2-phenyl[1-(5-morpholinylethoxy)phenyl]but-1-ene]",,,"IC50 [1, 3]: 1 to 5 µM"
"CC/C(=C(\Cc1ccccc1)c1ccccc1)c1ccc(OCCN(C)C)cc1 [Compound 11, 1-Benzyl-1-phenyl-2-[(4-dimethylaminoethoxy)phenyl]but-1-ene]",,,"IC50 [1, 3]: 115 to 120 µM"
"CCC(=C(Cc1ccccc1)c1ccccc1)c1ccc(OCCN(CC)CC)cc1 [Compound 12, 1-Benzyl-1-phenyl-2-[(4-diethylaminoethoxy)phenyl]but-1-ene]",20 to 25,,
"CCC(=C(Cc1ccccc1)c1ccccc1)c1ccc(OCCN2CCCC2)cc1 [Compound 13, 1-Benzyl-1-phenyl-2-[(4-pyrrolidinylethoxy)phenyl]but-1-ene]",20 to 25,,
"CCC(=C(Cc1ccccc1)c1ccccc1)c1ccc(OCCN2CCOCC2)cc1 [Compound 15, 1-Benzyl-1-phenyl-2-[(4-morpholinylethoxy)phenyl]but-1-ene]",50 to 55,,
CC/C(=C(/Cc1ccc(OCCN(C)C)cc1)c1ccccc1)c1ccccc1 [Compound 16],,,"IC50 [1, 3]: 25 to 30 µM"
"CCC(=C(Cc1ccccc1OCCN(CC)CC)c1ccccc1)c1ccccc1 [Compound 17, 1,2-Diphenyl-2-[2-(diethylaminoethoxy)benzyl]but-1-ene]",55 to 60,,
CCC(=C(Cc1ccc(OCCN2CCCC2)cc1)c1ccccc1)c1ccccc1 [Compound 18],140 to 145,,
CCC(Cc1ccccc1)=C(c1ccc(OCCN2CCCC2)cc1)c1ccc(OC(=O)C(C)(C)C)cc1 [Compound 21],1 to 10,,
CCC(Cc1ccccc1)=C(c1ccc(OCCN(C)C)cc1)c1ccc(OC(=O)C(C)(C)C)cc1 [Compound 22],10 to 50,,
CCC(Cc1ccccc1)=C(c1ccc(OCCN2CCOCC2)cc1)c1ccc(OC(=O)C(C)(C)C)cc1 [Compound 23],0.1 to 1,,

Compound,IC50 ([1]; read-out: IC50 Range) [µM],"IC50 [1, 4] [µM]",also measured
"CCC(Cc1ccccc1)=C(c1ccc(O)cc1)c1ccc(OCCN(C)C)cc1 [Compound 24, 4-{2-Benzyl-1-[4-(2-dimethylamino-ethoxy)-phenyl]-but-1-enyl}-phenol]",,,"IC50 [1, 3]: 0.01 to 0.1 µM"
"CC/C(Cc1ccccc1OC)=C(/c1ccc(OCCN2CCCC2)cc1)c1ccc(OC(=O)C(C)(C)C)cc1 [Compound 26, 2,2-Dimethyl-propionic acid 4-{2-(2-methoxybenzyl)-1-[4-(2-pyrrolidin-1-yl-ethoxy)-phenyl]-but-1-enyl}-phenyl ester]",,,"IC50 [1, 3]: 1 to 10 µM"
"CCC(Cc1ccccc1)=C(c1ccccc1)c1ccc(NCCOC)cc1 [Compound 27, [4-(2-Benzyl-1-phenylbut-1-enyl)-phenyl]-(2-methoxyethyl)-amine]",,33.7,
"CCOCCNc1ccc(C(=C(CC)Cc2ccccc2)c2ccccc2)cc1 [Compound 28, [4-(2-Benzyl-1-phenylbut-1-enyl)-phenyl]-(2-ethoxyethyl)-amine]",,36.8,
"CCCOCCNc1ccc(C(=C(CC)Cc2ccccc2)c2ccccc2)cc1 [Compound 29, [4-(2-Benzyl-1-phenylbut-1-enyl)-phenyl]-(2-propoxyethyl)-amine]",,46.9,
"CCC(Cc1ccccc1)=C(c1ccccc1)c1ccc(NCCCOC)cc1 [Compound 30, [4-(2-Benzyl-1-phenylbut-1-enyl)-phenyl]-(3-methoxypropyl)-amine]",,35.4,
"CCOCCCNc1ccc(/C(=C(/CC)Cc2ccccc2)c2ccccc2)cc1 [Compound 31, [4-(2-benzyl-1-phenylbut-1-enyl)-phenyl]-(3-ethoxypropyl)-amine]",,14.1,
"CCCOCCCNc1ccc(C(=C(CC)Cc2ccccc2)c2ccccc2)cc1 [Compound 32, [4-(2-Benzyl-1-phenylbut-1-enyl)-phenyl]-(3-propoxypropyl)-amine]",,23.3,
"CCC(Cc1ccccc1)=C(c1ccccc1)c1ccc(NCCO)cc1 [Compound 33, 2-[4-(2-Benzyl-1-phenylbut-1-enyl)-phenylamino]-ethanol]",,39.5,
"CCC(Cc1ccccc1)=C(c1ccccc1)c1ccc(NCCCO)cc1 [Compound 34, 3-[4-(2-Benzyl-1-phenylbut-1-enyl)-phenylamino]-propan-1-ol]",,34,
"CCC(Cc1ccccc1)=C(c1ccccc1)c1ccc(OCCO)cc1 [Compound 35, 2-[4-(2-Benzyl-1-phenylbut1enyl)-phenoxy]-ethanol]",,24.9,
"CCC(Cc1ccccc1)=C(c1ccccc1)c1ccc(OCCCO)cc1 [Compound 36, 3-[4-(2-Benzyl-1-phenylbut-1-enyl)-phenoxy]-propan-1-ol]",,20.2,
"CCC(Cc1ccccc1)=C(c1ccc(NCCOC)cc1)c1ccc(OC)cc1 [Compound 37, {4-[2-Benzyl-1-(4-methoxyphenyl)-but-1-enyl]-phenyl}-(2-methoxyethyl)-amine]",,34.4,
"CCC(Cc1ccc(OC)cc1)=C(c1ccc(NCCOC)cc1)c1ccc(OC)cc1 [Compound 38, {4-[2-(4-methoxybenzyl)-1-(4-methoxyphenyl)-but-1-enyl]-phenyl}-(2-methoxyethyl)-amine]",,51.8,
"CCC(Cc1ccc(OC)cc1)=C(c1ccccc1)c1ccc(NCCOC)cc1 [Compound 39, {4-[2-(4-methoxybenzyl)-1-phenylbut-1-enyl]-phenyl}-(2-methoxyethyl)-amine]",,49.5,
"CCC(Cc1ccccc1)=C(c1ccccc1)c1ccc(OCCOC)cc1 [Compound 40, 1-(2-Benzyl-1-phenylbut-1-enyl)-4-(2-methoxyethoxy)-benzene]",,41.7,
"CCC(Cc1ccc(O)cc1)=C(c1ccccc1)c1ccc(NCCOC)cc1 [Compound 41, 4-{2-Ethyl-3-[4-(2-methoxyethylamino)-phenyl]-3-phenylallyl}-phenol]",,32.4,
"CCC(Cc1ccccc1)=C(c1ccccc1)c1ccc(NCCN(C)C)cc1 [Compound 42, N′-[4-(2-Benzyl-1-phenylbut-1-enyl)-phenyl]-N,N-dimethylethane-1,2-diamine]",,13.7,
